In patent US10919916B2, “Boron-containing small molecules” (Bill & Melinda Gates Foundation, priority 2016, dated 2021):
Converted amounts (≈) assume the structure as drawn. Like-named read-outs stand apart in the source and are kept apart here.

Columns and labels:
[1] = system: Staphylococcus aureus, MRSA (ATCC 33591); experiment: Antibacterial MIC assay (microbroth dilution, CLSI); assay type: cell-based; conditions: read-out: MIC Staphylococcus aureus, MRSA (ATCC 33591)
In short: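 Compound 2-fold dilution series tested against 5×10^5 CFU/mL bacteria prepared from 0.5 McFarland saline suspensions of overnight colonies. Medium was cation-adjusted Mueller-Hinton broth, supplemented with 3% lysed horse blood for the fastidious pneumococcus. Protocol followed CLSI M07-A10 and M100-S25.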

[2] = system: Streptococcus pneumoniae (ATCC 49619); experiment: as above; assay type: cell-based
In short: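 S. pneumoniae at 5×10^5 CFU/mL (from 0.5 McFarland saline suspension) was tested against 2-fold serial compound dilutions in cation-adjusted Mueller-Hinton broth plus 3% lysed horse blood, per CLSI M07-A10/M100-S25 microdilution guidelines.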

[3] = ATCC49619, read-out: MIC Streptococcus pneumoniae (ATCC 49619)

Compound | MIC [1] [µg/mL] | MIC [2, 3] [µg/mL] | MIC ([1]; microbroth dilution, cation-adjusted Mueller-Hinton broth, 35° C. for 16-20 hours) [µg/mL] | MIC ([2]; ATCC49619, microbroth dilution, 3% lysed horse blood, 35° C. for 16-20 hours, read-out: MIC Streptococcus pneumoniae (ATCC 49619)) [µg/mL]
C=C[C@]1(C)C[C@@H](OC(=O)C[S@@+]([O-])c2ccc3c(c2)B(O)OC3)[C@]2(C)[C@H](C)CC[C@]3(CCC(=O)[C@H]32)[C@@H](C)[C@@H]1O [Compound 62, (3aR,4R,5R,7S,8S,9R,9aS,12R)-8-hydroxy-4,7,9,12-tetramethyl-3-oxo-7-vinyldecahydro-4,9a-propanocyclopenta[8]annulen-5-yl2-((R)-(1-hydroxy-1,3-dihydrobenzo[c][1,2]oxaborol-6-yl)sulfinyl)acetate] | < 0.25 | 0.5 to 2 (≈ 0.922 to 3.69 µM) |  | 
C=C[C@]1(C)C[C@@H](OC(=O)COc2ccc3c(c2)B(O)OC3(C)C)[C@]2(C)[C@H](C)CC[C@]3(CCC(=O)[C@H]32)[C@@H](C)[C@@H]1O [Compound 20, (3aR,4R,5R,7S,8S,9R,9aS,12R)-8-hydroxy-4,7,9,12-tetramethyl-3-oxo-7-vinyldecahydro-4,9a-propanocyclopenta[8]annulen-5-yl 2-((1-hydroxy-3,3-dimethyl-1,3-dihydrobenzo[c][1,2]oxaborol-6-yl)oxy)acetate] | < 0.25 | 0.5 to 2 (≈ 0.929 to 3.71 µM) |  | 
C=C[C@]1(C)C[C@@H](OC(=O)COc2ccc3c(c2F)B(O)N(S(C)(=O)=O)N=C3)[C@]2(C)[C@H](C)CC[C@]3(CCC(=O)[C@H]32)[C@@H](C)[C@@H]1O [Compound 80, (3aR,4R,5R,7S,8S,9R,9aS,12R)-8-hydroxy-4,7,9,12-tetramethyl-3-oxo-7-vinyldecahydro-4,9a-propanocyclopenta[8]annulen-5-yl 2-((8-fluoro-1-hydroxy-2-(methylsulfonyl)-1,2-dihydrobenzo[d][1,2,3]diazaborinin-7-yl)oxy)acetate] | < 0.25 | 0.5 to 2 (≈ 0.808 to 3.23 µM) |  | 
C=C[C@]1(C)C[C@@H](OC(=O)COc2ccc3c(c2Cl)B(O)OC3)[C@]2(C)[C@H](C)CC[C@]3(CCC(=O)[C@H]32)[C@@H](C)[C@@H]1O [Compound 6, (3aR,4R,5R,7S,8S,9R,9aS,12R)-8-hydroxy-4,7,9,12-tetramethyl-3-oxo-7-vinyldecahydro-4,9a-propanocyclopenta[8]annulen-5-yl 2-((7-chloro-1-hydroxy-1,3-dihydrobenzo[c][1,2]oxaborol-6-yl)oxy)acetate] | < 0.25 | 0.5 to 2 (≈ 0.918 to 3.67 µM) |  | 
C=C[C@]1(C)C[C@@H](OC(=O)COc2ccc3c(c2F)B(O)N(C)N=C3)[C@]2(C)[C@H](C)CC[C@]3(CCC(=O)[C@H]32)[C@@H](C)[C@@H]1O [Compound 85, (3aR,4R,5R,7S,8S,9R,9aS,12R)-8-hydroxy-4,7,9,12-tetramethyl-3-oxo-7-vinyldecahydro-4,9a-propanocyclopenta[8]annulen-5-yl 2-((8-fluoro-1-hydroxy-2-methyl-1,2-dihydrobenzo[d][1,2,3]diazaborinin-7-yl)oxy)acetate] | < 0.25 | < 0.25 |  | 
C=C[C@]1(C)C[C@@H](OC(=O)NCc2ccc3c(c2F)B(O)OC3)[C@]2(C)[C@H](C)CC[C@]3(CCC(=O)[C@H]32)[C@@H](C)[C@@H]1O [Compound 57, (3aR,4R,5R,7S,8S,9R,9aS,12R)-8-hydroxy-4,7,9,12-tetramethyl-3-oxo-7-vinyldecahydro-4,9a-propanocyclopenta[8]annulen-5-yl ((7-fluoro-1-hydroxy-1,3-dihydrobenzo[c][1,2]oxaborol-6-yl)methyl)carbamate] | < 0.25 | 0.5 to 2 (≈ 0.948 to 3.79 µM) |  | 
C=C[C@]1(C)C[C@@H](OC(=O)COc2cc3c(cc2OC)COB3O)[C@]2(C)[C@H](C)CC[C@]3(CCC(=O)[C@H]32)[C@@H](C)[C@@H]1O [Compound 15, (3aR,4R,5R,7S,8S,9R,9aS,12R)-8-hydroxy-4,7,9,12-tetramethyl-3-oxo-7-vinyldecahydro-4,9a-propanocyclopenta[8]annulen-5-yl 2-((1-hydroxy-5-methoxy-1,3-dihydrobenzo[c][1,2]oxaborol-6-yl)oxy)acetate] |  |  | < 0.25 | < 0.25
